Values joined by “and” are separate entries in the source; they are usually repeats but may differ in a detail not shown here. Equal entries are not always repeated. Square brackets hold non-standard residues; d marks the D form. Peptide text beside a SMILES is read from it. pY = N[C@@H](Cc1ccc(OP(=O)(O)O)cc1)C(=O)O
Experiments:
DLAR D2 [1] = molecular target: T1, DLAR D2 (Drosophila melanogaster, UniProt P16621); test: Surface Plasmon Resonance peptide binding, DLAR D2; details: column second binding site, single-site model
T1 construct: DLAR 1728-2029; His tag (pET-15b or pET-22b); made in house; host or cells: E. coli BL21(DE3)
T1 sequence (P16621 1728-2029): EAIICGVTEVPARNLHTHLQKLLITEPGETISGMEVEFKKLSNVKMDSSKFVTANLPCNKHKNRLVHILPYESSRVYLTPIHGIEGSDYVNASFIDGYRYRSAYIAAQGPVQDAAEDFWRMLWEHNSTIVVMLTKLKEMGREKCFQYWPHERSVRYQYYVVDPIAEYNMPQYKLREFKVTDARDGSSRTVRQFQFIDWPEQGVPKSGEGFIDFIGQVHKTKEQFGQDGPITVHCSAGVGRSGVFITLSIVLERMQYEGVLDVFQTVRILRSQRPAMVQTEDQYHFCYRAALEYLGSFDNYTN
Protocol: The binding of phosphotyrosine peptides to the PTP domains was studied by Surface Plasmon Resonance on a Biacore-2000 instrument (BIAcore, AB). All experiments were conducted at 25°C. DLAR PTP domains were immobilized onto carboxylated dextran CM5 chips (BIAcore AB) using the standard amine coupling procedure as recommended by the manufacturer. Binding and kinetic assays were performed in 10 mM HEPES, pH 8.0, 150 mM NaCl, 10 mM DTT and 3 mM EDTA at a flow rate of 5 µL/min. The peptides were used at concentrations ranging from 50–700 µM. Dissociation was initiated by replacing the analyte with buffer. The association and dissociation curves were monitored for 600 sec. Sensograms were analyzed with BIA-evaluation software version 2 (BIAcore AB). Sensograms for DLAR D1D2, DLAR D1HSSD2 and DLAR D1D2HSS were fitted to two-site binding equations. DLAR D1 and DLAR D2 sensograms were fitted using a single-site binding model.

DLAR D1 D2HSS = molecular target: T2, DLAR D1 D2HSS (Drosophila melanogaster, UniProt P16621, C1961S); test: Phosphatase assay using pNPP, DLAR D1 D2HSS; assay type: biochemical; details: CGH buffer pH 6.5, 100 mM NaCl, 2 mM DTT
T2 construct: DLAR 1448-2029; His tag (pET-15b or pET-22b); made in house; host or cells: E. coli BL21(DE3)
Protocol: (§1) Phosphatase activity of the recombinant PTP domains was determined by using para-Nitrophenylphosphate (pNPP), a small molecule generic substrate, as well as phosphotyrosine containing peptides. The pNPP assay was performed as reported previously, with a modification in the buffer composition (25 mM Citrate, Glycine and HEPES (CGH), pH 6.5, 100 mM NaCl and 2 mM DTT). Phosphatase activity with the phosphotyrosine peptides was ascertained by the malachite green reaction as described for PTPs previously. Briefly, the reaction mixture comprised of 0.01 µM protein incubated with increasing concentrations of different peptides in 25 mM citrate buffer pH 6.0, 100 mM NaCl and 2 mM DTT for 15 min at 25°C. The reaction was stopped by the addition of the Biomol Green reagent (Enzo Life Sciences) and the colour developed after 20 min was quantified at 650 nm. For all the assays, kinetic constants for the steady state catalysis were obtained by fitting the reaction curves to the Michaelis-Menten equation using the nonlinear regression module of Sigma plot software (Systat Software, Inc.).
The tandem PTP domains of PTP99A (PTP99A D1D2) and DLAR (DLAR D1D2) , the individual PTP domains (D1 and D2) as well as the active site mutants were expressed in E. coli and were purified using the protocols described earlier (Figure 1a, Figure S1a, b & c). The biochemical characterization and catalytic activity measurements were performed using pNPP as a substrate. […] Thus the D2 domain appears to have a regulatory role in both RPTPs- decreasing the catalytic activity in the case of DLAR while increasing the catalytic activity in the case of PTP99A (Figure 1b).

DLAR D2 [2] = molecular target: T1, DLAR D2; test: Phosphatase assay using pNPP, DLAR D2; assay type: biochemical; details: CGH buffer pH 6.5
Protocol: as §1

[3] = system: DLAR D1 active site cysteine to serine mutant; test: Phosphatase assay using pNPP, DLAR D1 active site Cys to Ser mutant; assay type: biochemical, Drosophila melanogaster; details: active site cysteine to serine in D1
From the text: Cosmids containing the genes encoding RPTPs DLAR and PTP99A were a kind gift from Prof. Kai Zinn (Caltech). The PTP domains of PTP99A and DLAR were PCR amplified and ligated between the NheI and XhoI restriction sites of the bacterial expression vectors pET-15b and pET-22b. The active site mutants (with the nucleophilic cysteines in the PTP domains of DLAR and PTP99A mutated to serines) were obtained by using a single primer approach. An XbaI site was incorporated in the primers to aid screening of mutants. All clones were confirmed by sequencing (Macrogen Inc.). The details of the expression constructs are compiled in Table S1 and Figure 1a.
Phosphatase activity of the recombinant PTP domains was determined by using para-Nitrophenylphosphate (pNPP), a small molecule generic substrate, as well as phosphotyrosine containing peptides. The pNPP assay was performed as reported previously, with a modification in the buffer composition (25 mM Citrate, Glycine and HEPES (CGH), pH 6.5, 100 mM NaCl and 2 mM DTT). Phosphatase activity with the phosphotyrosine peptides was ascertained by the malachite green reaction as described for PTPs previously. […] The reaction was stopped by the addition of the Biomol Green reagent (Enzo Life Sciences) and the colour developed after 20 min was quantified at 650 nm. […]

PTP99A D1 = molecular target: T3, PTP99A D1 (Drosophila melanogaster, UniProt P35832); test: Phosphatase assay using pNPP, PTP99A D1; assay type: biochemical; parameters: PTP99A 450-756; His tag (pET-15b or pET-22b); made in house; host or cells: E. coli BL21(DE3); details: CGH buffer pH 6.5, 100 mM NaCl, 2 mM DTT
T3 sequence (P35832 450-756): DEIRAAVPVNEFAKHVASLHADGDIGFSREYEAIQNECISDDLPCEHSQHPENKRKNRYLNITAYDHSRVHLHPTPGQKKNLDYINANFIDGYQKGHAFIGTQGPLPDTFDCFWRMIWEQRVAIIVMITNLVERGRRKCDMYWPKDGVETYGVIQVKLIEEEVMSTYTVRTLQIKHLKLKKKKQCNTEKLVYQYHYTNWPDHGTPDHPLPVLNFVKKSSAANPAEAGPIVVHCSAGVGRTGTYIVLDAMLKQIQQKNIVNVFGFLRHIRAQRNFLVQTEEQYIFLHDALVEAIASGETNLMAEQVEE
Protocol: as §1
The tandem PTP domains of PTP99A (PTP99A D1D2) and DLAR (DLAR D1D2) , the individual PTP domains (D1 and D2) as well as the active site mutants were expressed in E. coli and were purified using the protocols described earlier (Figure 1a, Figure S1a, b & c). […]

T2 sequence (P16621 1448-2029 C1961S): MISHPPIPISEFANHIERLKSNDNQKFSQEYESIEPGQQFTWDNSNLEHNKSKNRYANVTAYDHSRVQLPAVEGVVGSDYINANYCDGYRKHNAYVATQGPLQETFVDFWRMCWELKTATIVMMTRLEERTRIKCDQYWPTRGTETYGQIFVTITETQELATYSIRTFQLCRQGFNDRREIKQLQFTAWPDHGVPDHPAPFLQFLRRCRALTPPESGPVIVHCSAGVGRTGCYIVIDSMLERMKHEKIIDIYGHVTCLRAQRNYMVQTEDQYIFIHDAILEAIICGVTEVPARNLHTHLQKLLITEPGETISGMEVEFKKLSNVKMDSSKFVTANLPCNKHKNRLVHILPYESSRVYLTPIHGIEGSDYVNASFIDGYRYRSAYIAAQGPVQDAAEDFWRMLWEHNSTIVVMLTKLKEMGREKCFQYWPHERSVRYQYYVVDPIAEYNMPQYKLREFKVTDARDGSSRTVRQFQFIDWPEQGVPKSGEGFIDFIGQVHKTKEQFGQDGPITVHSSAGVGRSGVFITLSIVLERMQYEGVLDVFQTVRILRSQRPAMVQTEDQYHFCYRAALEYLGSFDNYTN

Row | Compound | kon (DLAR D2 [1]; SPR Biacore-2000, 25°C, 10 mM HEPES pH 8.0, 150 mM NaCl, 10 mM DTT, 3 mM EDTA, peptides 50–700 µM, read-out: ka) [M⁻¹ s⁻¹] | Kd (DLAR D2 [1]; SPR, 25°C, pH 8.0) [µM] | Kcat (DLAR D1 D2HSS) [s⁻¹] | Kcat/Km (DLAR D1 D2HSS) | Vmax (DLAR D1 D2HSS; Michaelis-Menten fit) [µmol/min/mg] | PTPase activity (DLAR D2 [2]) | PTPase activity [3] | Kcat (PTP99A D1) [s⁻¹] | Vmax (PTP99A D1; Michaelis-Menten fit)
1 | CC(C)C[C@H](NC(=O)[C@H](C)NC(=O)CNC(=O)[C@H](Cc1ccc(OP(=O)(O)O)cc1)NC(=O)[C@H](CC(=O)O)NC(=O)[C@@H]1CCCN1C(=O)[C@H](CCC(=O)O)NC(=O)[C@H](C)NC(=O)[C@@H](N)[C@@H](C)O)C(=O)N[C@@H](Cc1ccc(O)cc1)C(=O)N[C@@H](CCC(=O)O)C(=O)O [Cuticle peptide] (H-TAEPD[pY]GALYE-OH) | 52.8 ± 0.69 | 104.5 ± 0.06 |  |  |  |  |  |  | 
2 | O=[N+]([O-])c1ccc(OP(=O)(O)O)cc1 [pNPP, para-Nitrophenylphosphate] |  |  | 6.49 ± 0.17 | 1.97 ± 0.10 x 10^3 sec^-1M^-1 | 5.84 ± 0.15 | no detectable activity | inactive enzyme | 0.14 ± 0.01 | 0.22 µmol/min/mg and 0.22 ± 0.01 µmol/min/mg
